Results as given in PubChem BioAssay AID2060891 (Molecular Pharmacology Branch, DTP, NCI, 2025).
One block for each compound: values may come before it.

Test system: K98450-129-R-PDC complex spheroid growth, percent test/control
Assay: Anticancer human tumor K98450-129-R-PDC patient-derived colon adenocarcinoma cell line growth inhibition [RAS]
Conditions: for IC50: curve of first compound; for viability, T/C: stronger effect = lower value
Text: RAS pathway inhibitors in Combinations in Complex Spheroids
A high-throughput screen of multi-cell type tumor spheroids was designed to identify active combinations of RAS pathway inhibitors and targeted small molecules. Complex spheroids include a stromal component modeled by human endothelial cells (HUVEC) and fibroblasts modeled by human mesenchymal stem cells (MSCs). The concentration ranges selected for each drug and investigational agent were based upon clinically achievable concentrations if the clinical Cmax of the agent was known.
Compounds. The drugs and investigational agents: abemaciclib (NSC768073), cobimetinib (NSC768068), divarasib (GDC6063, NSC841802), docetaxel (NSC628503), GDC-1971 (RLY-1971, NSC841576), gemcitabine (NSC613327), inavolisib (NSC800729), ipatasertib (NSC767898), KB-0742 (NSC834161), MRTX-1133 (NSC836407), osimertinib (NSC779217), RMC-4630 (NSC839698), RMC-6236 (NSC851965), RMC-6291 (NSC852671), Ro-3306 (NSC812927), sapanisertib (NSC764658), SN-38 (NSC673596), staurosporine (NSC755774), SY5609 (NSC837396), and tovorafenib (DAY101, NSC766906), were obtained from the National Cancer Institute (NCI) Developmental Therapeutics Program Chemical Repository. The FDA-approved anticancer drug set is available from the NCI Developmental Therapeutics Program. […] The stock solutions were prepared in dimethyl sulfoxide (DMSO, Sigma-Aldrich, St. Louis, MO, cat. D2650) at 800-fold the tested concentration and stored at -70 degrees C prior to their use. All drugs and investigational agents were tested over a range starting from a high concentration at or near the clinical Cmax and decreasing in half-log increments. If the clinical Cmax for an agent had not been determined, the highest concentration tested was 10 microM.
Cell Culture. All cells were maintained in an incubator at 37 degrees C and 5% CO2 with 95% humidity. The PDC lines were cultured according to standard operating procedures established by the NCI PDMR. All PDCs were thawed and cultured in Matrigel-coated flasks prepared with a working solution of 1X Ham's F-12 nutrient mix, without supplementation (Invitrogen, Waltham, MA, cat. 11765054), 100 U/mL penicillin-streptomycin (Invitrogen, cat. 15140122), and 2.5% Matrigel (Corning Inc., Corning, NY, cat. 354248) for the first three passages. The 362531-283-R-J2-PDC and 782815-120-R-J1-PDC lines were cultured in 6C/Colon 1B media, which includes advanced DMEM/F-12 (Thermo Fisher Scientific, cat. 12634028), 10 mM HEPES (Thermo Fisher Scientific, cat. 15630080), 1X GlutaMAX supplement (Thermo Fisher Scientific, cat. 35050061), 0.1 mg/mL primocin (InvivoGen, San Diego, CA, cat. ant-pm-2), 10% defined fetal bovine serum, heat inactivated (HyClone Laboratories Inc., Logan, UT, cat. SH30070.03HI), 50% L-WRN conditioned media (ATCC, cat. CRL-3276), 1.25 mM N-Acetyl-L-cysteine (Sigma-Aldrich, cat. A9165), 10 mM nicotinamide (Sigma-Aldrich, cat. N0636), 1X B-27 supplement (Thermo Fisher Scientific, cat. 17504044), 1X N-2 supplement (Thermo Fisher Scientific, cat. 17502048), 50 ng/mL human EGF (Thermo Fisher Scientific, cat. PHG0311), and 10 microM Y-27632 dihydrochloride (Tocris Bioscience, cat. 1254). The K12877-001-R-J1-PDC line was cultured in 6I media, which includes all 6C/Colon 1B media plus 10 ng/mL human FGF-10 (PeproTech, cat. 100-26), 1 ng/mL human FGF-2 (PeproTech, cat. 100-18B), 1 µM prostaglandin E2 (Tocris Bioscience, cat. 2296), […] hydrocortisone (Sigma-Aldrich, cat. H4001), and […] bovine insulin (Sigma-Aldrich, cat. I6634). The K86415-001-R-J1-PDC line was cultured in 6D media, which includes all 6C/Colon 1B media components minus the L-WRN conditioned media. The 485176-168-R4-J1-PDC was cultured in PANC media, which includes all 6C/Colon 1B media plus 100 ng/mL human FGF-10 (PeproTech, cat. 100-26), 500 nM SB-431542 (Selleckchem, cat. S1067), and 10 nM gastrin (Tocris Bioscience, cat. 3006). […]

[1] = second compound 0.0316 µM, first compound 0.0316 µM
[2] = second compound 0.0316 µM, first compound 0.1 µM
[3] = second compound 0.0316 µM, first compound 0.316 µM
[4] = second compound 0.0316 µM, first compound 1 µM
[5] = second compound 0.0316 µM, first compound 3.16 µM
[6] = second compound 0.0316 µM, first compound 10 µM
[7] = second compound 0.1 µM, first compound 0.0316 µM
[8] = second compound 0.1 µM, first compound 0.1 µM
[9] = second compound 0.1 µM, first compound 0.316 µM
[10] = second compound 0.1 µM, first compound 1 µM
[11] = second compound 0.1 µM, first compound 3.16 µM
[12] = second compound 0.1 µM, first compound 10 µM
[13] = second compound 0.316 µM, first compound 0.0316 µM
[14] = second compound 0.316 µM, first compound 0.1 µM
[15] = second compound 0.316 µM, first compound 0.316 µM
[16] = second compound 0.316 µM, first compound 1 µM
[17] = second compound 0.316 µM, first compound 3.16 µM
[18] = second compound 0.316 µM, first compound 10 µM
[19] = second compound 1 µM, first compound 0.0316 µM
[20] = second compound 1 µM, first compound 0.1 µM
[21] = second compound 1 µM, first compound 0.316 µM
[22] = second compound 1 µM, first compound 1 µM
[23] = second compound 1 µM, first compound 3.16 µM
[24] = second compound 1 µM, first compound 10 µM
[25] = second compound 3.16 µM, first compound 0.0316 µM
[26] = second compound 3.16 µM, first compound 0.1 µM
[27] = second compound 3.16 µM, first compound 0.316 µM
[28] = second compound 3.16 µM, first compound 1 µM
[29] = second compound 3.16 µM, first compound 3.16 µM
[30] = second compound 3.16 µM, first compound 10 µM
[31] = second compound 10 µM, first compound 0.0316 µM
[32] = second compound 10 µM, first compound 0.1 µM
[33] = second compound 10 µM, first compound 0.316 µM
[34] = second compound 10 µM, first compound 1 µM
[35] = second compound 10 µM, first compound 3.16 µM
[36] = second compound 10 µM, first compound 10 µM
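Note: spheroids exposed to agents for seven days before the viability readout.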
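Throughout, for viability, T/C: luminescence used as a proxy for viable cell amount.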

IC50 (second compound 0.0316 µM): 3010 nM | IC50 (second compound 0.1 µM): 3130 nM | IC50 (second compound 0.316 µM): 2240 nM | IC50 (second compound 1 µM): 1720 nM | IC50 (second compound 3.16 µM): 1070 nM | IC50 (second compound 10 µM): 513 nM
SMILES: Cc1nc(N2CCC3(CC2)COC(C)C3N)c(CO)nc1Sc1ccnc(N)c1Cl (stereo unspecified) + C#Cc1c(F)ccc2cc(O)cc(-c3ncc4c(N5CC6CCC(C5)N6)nc(OCC56CCCN5CC(F)C6)nc4c3F)c12
viability, T/C [1]: 104% | viability, T/C [2]: 93.3% | viability, T/C [3]: 88.8% | viability, T/C [4]: 75.8% | viability, T/C [5]: 46.9% | viability, T/C [6]: 25% | viability, T/C [7]: 112% | viability, T/C [8]: 93.5% | viability, T/C [9]: 83.6% | viability, T/C [10]: 80.8% | viability, T/C [11]: 45.3% | viability, T/C [12]: 21.5% | viability, T/C [13]: 101% | viability, T/C [14]: 97.5% | viability, T/C [15]: 86.1% | viability, T/C [16]: 66.6% | viability, T/C [17]: 43.1% | viability, T/C [18]: 19.8% | viability, T/C [19]: 97% | viability, T/C [20]: 98.9% | viability, T/C [21]: 84% | viability, T/C [22]: 64.3% | viability, T/C [23]: 34.3% | viability, T/C [24]: 12.9% | viability, T/C [25]: 91.2% | viability, T/C [26]: 82% | viability, T/C [27]: 79.8% | viability, T/C [28]: 52.7% | viability, T/C [29]: 17.1% | viability, T/C [30]: 10.5% | viability, T/C [31]: 83.4% | viability, T/C [32]: 82.2% | viability, T/C [33]: 62.8% | viability, T/C [34]: 31.7% | viability, T/C [35]: 11.4% | viability, T/C [36]: 7.51%

IC50 (second compound 0.0316 µM): 195 nM | IC50 (second compound 0.1 µM): 189 nM | IC50 (second compound 0.316 µM): 165 nM | IC50 (second compound 1 µM): 141 nM | IC50 (second compound 3.16 µM): 75.8 nM | IC50 (second compound 10 µM): 48 nM
SMILES: NC1c2ccccc2OC12CCN(c1cnc3c(N4CCCc5ncccc54)n[nH]c3n1)CC2 (stereo unspecified) + C#Cc1c(F)ccc2cc(O)cc(-c3ncc4c(N5CC6CCC(C5)N6)nc(OCC56CCCN5CC(F)C6)nc4c3F)c12
viability, T/C [1]: 92.2% | viability, T/C [2]: 73.8% | viability, T/C [3]: 32.1% | viability, T/C [4]: 17.4% | viability, T/C [5]: 11.8% | viability, T/C [6]: 9.37% | viability, T/C [7]: 97.8% | viability, T/C [8]: 72.7% | viability, T/C [9]: 31.3% | viability, T/C [10]: 14% | viability, T/C [11]: 9.92% | viability, T/C [12]: 6.11% | viability, T/C [13]: 96.6% | viability, T/C [14]: 70.2% | viability, T/C [15]: 23.4% | viability, T/C [16]: 10.3% | viability, T/C [17]: 8.37% | viability, T/C [18]: 6.2% | viability, T/C [19]: 91.2% | viability, T/C [20]: 65.2% | viability, T/C [21]: 14.2% | viability, T/C [22]: 8.69% | viability, T/C [23]: 6.98% | viability, T/C [24]: 6.07% | viability, T/C [25]: 78.2% | viability, T/C [26]: 41.1% | viability, T/C [27]: 10.8% | viability, T/C [28]: 7.66% | viability, T/C [29]: 5.66% | viability, T/C [30]: 4.62% | viability, T/C [31]: 63.9% | viability, T/C [32]: 25.6% | viability, T/C [33]: 7.94% | viability, T/C [34]: 6.21% | viability, T/C [35]: 4.84% | viability, T/C [36]: 2.23%

IC50 (second compound 0.0316 µM): 72.2 nM | IC50 (second compound 0.1 µM): 87.7 nM | IC50 (second compound 0.316 µM): 83.8 nM | IC50 (second compound 1 µM): 74.2 nM | IC50 (second compound 3.16 µM): 90.5 nM | IC50 (second compound 10 µM): 87.5 nM
SMILES: Nc1ccn(C2OC(CO)C(O)C2(F)F)c(=O)n1 (stereo unspecified) + C#Cc1c(F)ccc2cc(O)cc(-c3ncc4c(N5CC6CCC(C5)N6)nc(OCC56CCCN5CC(F)C6)nc4c3F)c12
viability, T/C (second compound 0.0316 µM, first compound 0.00316 µM): 109% | viability, T/C (second compound 0.0316 µM, first compound 0.01 µM): 99.1% | viability, T/C [1]: 65.4% | viability, T/C [2]: 44.8% | viability, T/C [3]: 35.6% | viability, T/C [4]: 29.6% | viability, T/C (second compound 0.1 µM, first compound 0.00316 µM): 115% | viability, T/C (second compound 0.1 µM, first compound 0.01 µM): 106% | viability, T/C [7]: 73.5% | viability, T/C [8]: 47% | viability, T/C [9]: 37.8% | viability, T/C [10]: 29.7% | viability, T/C (second compound 0.316 µM, first compound 0.00316 µM): 107% | viability, T/C (second compound 0.316 µM, first compound 0.01 µM): 96.3% | viability, T/C [13]: 75.4% | viability, T/C [14]: 44.4% | viability, T/C [15]: 33.9% | viability, T/C [16]: 30.5% | viability, T/C (second compound 1 µM, first compound 0.00316 µM): 101% | viability, T/C (second compound 1 µM, first compound 0.01 µM): 94.7% | viability, T/C [19]: 68.1% | viability, T/C [20]: 43.3% | viability, T/C [21]: 38% | viability, T/C [22]: 31.9% | viability, T/C (second compound 3.16 µM, first compound 0.00316 µM): 95.7% | viability, T/C (second compound 3.16 µM, first compound 0.01 µM): 90% | viability, T/C [25]: 70.2% | viability, T/C [26]: 46.9% | viability, T/C [27]: 39.5% | viability, T/C [28]: 31.1% | viability, T/C (second compound 10 µM, first compound 0.00316 µM): 92.5% | viability, T/C (second compound 10 µM, first compound 0.01 µM): 87.9% | viability, T/C [31]: 71.6% | viability, T/C [32]: 46.6% | viability, T/C [33]: 37.2% | viability, T/C [34]: 32.4%
